Where a name gives a salt, the structure may show the parent alone.
The compounds below were run on E. coli 287 (ATCC #11775).
Assay type: cell-based

SMILES | carbon source utilization result
CC(C)C[C@H](N)C(=O)O [L-leucine] | negative

What follows are compounds tested on E. coli MG1655.
Assay type: cell-based

SMILES | suitability as nitrogen source (growth, purple color)
CC(C)C[C@H](N)C(=O)O [L-leucine] | not suitable

Test system: E. coli MG1655
Assay type: cell-based
Remark: another data set of the same source

SMILES | suitability as phosphorus source (growth, purple color) | suitability as sulfur source (growth, purple color)
Nc1nc2c(ncn2[C@@H]2O[C@H](CO)[C@H]3OP(=O)(O)O[C@H]32)c(=O)[nH]1 [guanosine 2′:3′-cyclic monophosphate] | positive | 
C=C(OP(=O)(O)O)C(=O)O [phosphoenol pyruvate] | positive | 
O=C(O)C(CO)OP(=O)(O)O (stereo not shown) [2-phosphoglyceric acid] | positive | 
N[C@H](Cc1ccc(OP(=O)(O)O)cc1)C(=O)O [O-phospho-D-tyrosine] | positive | 
CSC[C@H](N)C(=O)O [S-methyl-L-cysteine] |  | weak positive
Nc1nc2c(ncn2[C@@H]2O[C@@H]3COP(=O)(O)O[C@H]3[C@H]2O)c(=O)[nH]1 [guanosine 3′:5′-cyclic monophosphate] | not suitable | 
C[S+]([O-])CC[C@H](N)C(=O)O (stereo partly drawn) [L-methionine sulfoxide] |  | positive
N[C@@H](CSCSC[C@H](N)C(=O)O)C(=O)O [L-djenkolic acid] |  | positive
O=P(O)(O)OP(=O)(O)O [pyrophosphate] | not suitable | 
NCCS(=O)O [hypotaurine] |  | positive
N[C@@H](CS(=O)O)C(=O)O [L-cysteine sulphinic acid] |  | positive
O=P(O)(O)OC1O[C@H](CO)[C@@H](O)[C@H](O)[C@@H]1O (stereo partly shown) [mannose 1-phosphate] | positive | 
O=P(O)(O)OP(=O)(O)OP(=O)(O)O [tripolyphosphate] | not suitable | 
O=C(O)CS [thioglycolic acid] |  | not suitable
N[C@H]1C(O)O[C@H](COP(=O)(O)O)[C@@H](O)[C@@H]1O (stereo partly shown) [glucosamine 6-phosphate] | positive | 
CC(=O)N[C@@H](CS)C(=O)O [N-acetyl cysteine] |  | not suitable
O=C(O)CP(=O)(O)O [phosphonoacetic acid] | not suitable | 
O=C[C@@H](O)[C@H](O)[C@H](O)COP(=O)(O)O [arabinose 5-phosphate] | positive | 
N[C@@H](CS(=O)(=O)O)C(=O)O [L-cysteic acid] |  | positive
CSCCC(NC(=O)CN)C(=O)O (racemic) [glycyl-DL-methionine] |  | positive
N[C@@H](CSC[C@H](N)C(=O)O)C(=O)O [lanthionine] |  | positive
O=C(COP(=O)(O)O)[C@@H](O)[C@H](O)[C@H](O)CO [fructose 1-phosphate] | positive | 
CC(=O)OC[C@H](N)C(=O)O [O-acetyle-serine with sodium sulfate, O-acetyl-serine] |  | positive
CCCCCCCCCCCCS(=O)(=O)O [1-dodecane-sulfonic acid] |  | not suitable
C[C@@H](OP(=O)(O)O)[C@H](N)C(=O)O [O-phospho-L-threonine] | positive | 
CS(=O)(=O)CC[C@H](N)C(=O)O [L-methionine sulfone] |  | not suitable
